Results published in PubChem BioAssay AID1963841 (Molecular Pharmacology Branch, DTP, NCI, 2024).

Tested on: 439559-082-T-J2-PDC spheroid viability
Test: Anticancer human tumor 439559-082-T-J2-PDC patient-derived colon adenocarcinoma cell line growth inhibition [POLQ]
Conditions: spheroids with HUVEC and MSC; for IC50: curve of first compound; for viability, T/C: stronger effect = lower value
Method in brief: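 PDC + HUVEC + MSC complex spheroids; POLQ inhibitors ± partner drugs; top conc. at/near clinical Cmax, else 10 microM (SN-38 1 microM), half-log dilutions; 37 degrees C, 5% CO2.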
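Note: spheroids exposed to compounds for seven days before readout.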
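Throughout, for viability, T/C: 100% = DMSO vehicle control viability.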

**Q.** CCc1cc2c(N3CCc4c(cc(Cn5ccnc5)cc4-c4cn(C)nc4C(F)(F)F)C3=O)cc(C)nc2c(OC)n1 + Nc1ccc(C#CCN(C(=O)Cc2ncc(C(F)(F)F)cc2C(F)(F)F)c2ccc(F)cc2)nn1 was tested. Which IC50 (second compound 0.0316 µM) did it give?
**A.** > 10 µM

**Q.** And the IC50 (second compound 0.1 µM)?
**A.** > 10 µM

**Q.** What about the IC50 (second compound 0.316 µM) of the same molecule?
**A.** > 10 µM

**Q.** What about the IC50 (second compound 1 µM) of the same molecule?
**A.** > 10 µM

**Q.** What about the IC50 (second compound 3.16 µM) of the same molecule?
**A.** > 10 µM

**Q.** And the IC50 (second compound 10 µM)?
**A.** > 10 µM

**Q.** What about the viability, T/C (second compound 0.0316 µM, first compound 0.0316 µM) of the same molecule?
**A.** 97%

**Q.** And the viability, T/C (second compound 0.0316 µM, first compound 0.1 µM)?
**A.** 96.8%

**Q.** And the viability, T/C (second compound 0.0316 µM, first compound 0.316 µM)?
**A.** 95.3%

**Q.** And the viability, T/C (second compound 0.0316 µM, first compound 1 µM)?
**A.** 93.2%

**Q.** What about the viability, T/C (second compound 0.0316 µM, first compound 3.16 µM) of the same molecule?
**A.** 98.2%

**Q.** What about the viability, T/C (second compound 0.0316 µM, first compound 10 µM) of the same molecule?
**A.** 92.7%

**Q.** What about the viability, T/C (second compound 0.1 µM, first compound 0.0316 µM) of the same molecule?
**A.** 108%

**Q.** What about the viability, T/C (second compound 0.1 µM, first compound 0.1 µM) of the same molecule?
**A.** 87.9%

**Q.** What about the viability, T/C (second compound 0.1 µM, first compound 0.316 µM) of the same molecule?
**A.** 89.7%

**Q.** And the viability, T/C (second compound 0.1 µM, first compound 1 µM)?
**A.** 95.9%

**Q.** What about the viability, T/C (second compound 0.1 µM, first compound 3.16 µM) of the same molecule?
**A.** 91.9%

**Q.** And the viability, T/C (second compound 0.1 µM, first compound 10 µM)?
**A.** 96.2%

**Q.** And the viability, T/C (second compound 0.316 µM, first compound 0.0316 µM)?
**A.** 102%

**Q.** What about the viability, T/C (second compound 0.316 µM, first compound 0.1 µM) of the same molecule?
**A.** 92.2%

**Q.** And the viability, T/C (second compound 0.316 µM, first compound 0.316 µM)?
**A.** 95.7%

**Q.** What about the viability, T/C (second compound 0.316 µM, first compound 1 µM) of the same molecule?
**A.** 96%

**Q.** And the viability, T/C (second compound 0.316 µM, first compound 3.16 µM)?
**A.** 96.1%

**Q.** What about the viability, T/C (second compound 0.316 µM, first compound 10 µM) of the same molecule?
**A.** 86.5%

**Q.** And the viability, T/C (second compound 1 µM, first compound 0.0316 µM)?
**A.** 94.5%

**Q.** And the viability, T/C (second compound 1 µM, first compound 0.1 µM)?
**A.** 95%

**Q.** What about the viability, T/C (second compound 1 µM, first compound 0.316 µM) of the same molecule?
**A.** 89.3%

**Q.** What about the viability, T/C (second compound 1 µM, first compound 1 µM) of the same molecule?
**A.** 85.3%

**Q.** What about the viability, T/C (second compound 1 µM, first compound 3.16 µM) of the same molecule?
**A.** 104%

**Q.** And the viability, T/C (second compound 1 µM, first compound 10 µM)?
**A.** 88.6%

**Q.** What about the viability, T/C (second compound 3.16 µM, first compound 0.0316 µM) of the same molecule?
**A.** 101%

**Q.** What about the viability, T/C (second compound 3.16 µM, first compound 0.1 µM) of the same molecule?
**A.** 93.3%

**Q.** What about the viability, T/C (second compound 3.16 µM, first compound 0.316 µM) of the same molecule?
**A.** 85.9%

**Q.** What about the viability, T/C (second compound 3.16 µM, first compound 1 µM) of the same molecule?
**A.** 86.3%

**Q.** And the viability, T/C (second compound 3.16 µM, first compound 3.16 µM)?
**A.** 92.6%

**Q.** What about the viability, T/C (second compound 3.16 µM, first compound 10 µM) of the same molecule?
**A.** 86.3%

**Q.** And the viability, T/C (second compound 10 µM, first compound 0.0316 µM)?
**A.** 98.5%

**Q.** And the viability, T/C (second compound 10 µM, first compound 0.1 µM)?
**A.** 95.3%

**Q.** And the viability, T/C (second compound 10 µM, first compound 0.316 µM)?
**A.** 80.4%

**Q.** And the viability, T/C (second compound 10 µM, first compound 1 µM)?
**A.** 96%

**Q.** What about the viability, T/C (second compound 10 µM, first compound 3.16 µM) of the same molecule?
**A.** 89.1%

**Q.** And the viability, T/C (second compound 10 µM, first compound 10 µM)?
**A.** 86.8%
